System: KRAS patient-derived spheroids with HUVEC/MSC, viability
Assay: Anticancer human tumor 323965-272-R-J2-PDC patient-derived pancreatic carcinoma cell line growth inhibition [KRAS2]
Conditions: for IC50: curve of first compound; for viability, T/C: stronger effect = lower value
From the text: Multicellular complex tumor spheroid response to RAS pathway inhibitors in combination with a targeted agents in patient-derived cell lines with oncogenic KRAS variants from multiple cancer types
A high-throughput screen of multi-cell type tumor spheroids was designed to identify active combinations of targeted small molecules and KRAS pathway inhibitors. Complex spheroids include a stromal component modeled by human endothelial cells (HUVEC) and fibroblasts modeled by human mesenchymal stem cells (MSCs). The concentration ranges selected for each drug and investigational agent were based upon clinically achievable concentrations if the clinical Cmax of the agent was known.
Compounds. The drugs and investigational agents: BI-3406 (NSC825286), BAY-293 (NSC824723), batoprotafib (TNO155; NSC825523), sotorasib (AMG 510; NSC818433), MRTX1257 (NSC819558), elimusertib (BAY 1895344; NSC800525), molibresib (GSK525762; NSC774829), temuterkib (LY3214996; NSC803410), venetoclax (NSC766270), alisertib (NSC759677), olaparib (NSC753686), talazoparib (NSC767125), erdafitinib (NSC781556), ipatasertib (NSC767898), cabozantinib (NSC761068), nintedanib (NSC756659), abemaciclib (NSC768073), docetaxel (NSC628503), trametinib (NSC758246), and sapanisertib (NSC764658) were obtained from the National Cancer Institute (NCI) Developmental Therapeutics Program Chemical Repository. The FDA-approved anticancer drug set is available from the Developmental Therapeutics Program. […] The stock solutions were prepared in dimethyl sulfoxide (DMSO, Sigma-Aldrich, St. Louis, MO, cat. D2650) at 800-fold the tested concentration and stored at -70 degrees C prior to their use. All drugs and investigational agents were tested over a range starting from a high concentration at or near the clinical Cmax and decreasing in half-log increments. If the clinical Cmax for an agent had not been determined, the highest concentration tested was 10 microM.
Cell Culture. All cells were maintained in an incubator at 37 degrees C and 5% CO2 with 95% humidity. The PDC lines were cultured according to standard operating procedures established by the NCI PDMR (https://pdmr.cancer.gov/sops/default.htm). Briefly, all PDCs were thawed and cultured in Matrigel-coated flasks prepared with a working solution of 1X Ham's F-12 nutrient mix, without supplementation (Invitrogen, Waltham, MA, cat. 11765054), 100 U/mL penicillin-streptomycin (Invitrogen, cat. 15140122), and 2.5% Matrigel (Corning Inc., Corning, NY, cat. 354248) for the first three passages. All PDCs were cultured in complete DMEM/F-12 media containing advanced DMEM/F-12 (Invitrogen, cat. 12634028), 4.9% defined fetal bovine serum, heat inactivated (HyClone Laboratories Inc., Logan, UT, cat. SH30070.03HI), 389 ng/mL hydrocortisone (Sigma-Aldrich, cat. H4001), 9.7 ng/mL human EGF recombinant protein (Invitrogen, cat. PHG0313), 23.4 microg/mL adenine (Sigma-Aldrich, cat. A2786), 97.3 U/mL penicillin-streptomycin (Invitrogen, cat. 15140122), 1.9 mM L-glutamine (Invitrogen, cat. 25030081), and 9.7 microM Y-27632 dihydrochloride (Tocris Bioscience, Bristol, United Kingdom, cat. 1254). The PDCs were cultured in complete DMEM/F12 media without 9.7 microM Y-27632 dihydrochloride for at least two passages prior to the screen. The established cell line HOP-62 was cultured in RPMI 1640 medium, HEPES (Invitrogen, cat. 22400105) with 10% defined fetal bovine serum (HyClone Laboratories Inc., cat. SH30070.03) and 2 mM L-glutamine (Invitrogen, cat. 25030081). The pooled donor HUVEC were cultured in endothelial cell growth medium 2 (PromoCell, Heidelberg, Germany, cat. C-22011) and the hMSC were cultured in mesenchymal stem cell growth medium 2 (PromoCell, cat. C-28009). For all experiments, HUVEC and hMSC were used at passages </=5, while the malignant cell lines were used at passages </=15. […]

[1] = second compound 0.1 µM, first compound 0.0316 µM
[2] = second compound 0.316 µM, first compound 0.0316 µM
[3] = second compound 1 µM, first compound 0.0316 µM
[4] = second compound 3.16 µM, first compound 0.0316 µM
[5] = second compound 10 µM, first compound 0.0316 µM
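Further: spheroids exposed to agents for 7 days.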
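Wherever viability, T/C is given: 100% = DMSO vehicle control viability.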

CC(=O)Nc1cccc(-n2c(=O)n(C3CC3)c(=O)c3c(Nc4ccc(I)cc4F)n(C)c(=O)c(C)c32)c1 + CC1OCC2(CCN(c3cnc(Sc4ccnc(N)c4Cl)c(N)n3)CC2)C1N
IC50 (second compound 0.1 µM): 1.78 nM | IC50 (second compound 0.316 µM): 0.438 nM | IC50 (second compound 1 µM): < 0.1 nM | IC50 (second compound 3.16 µM): < 0.1 nM | IC50 (second compound 10 µM): < 0.1 nM | viability, T/C (second compound 0.1 µM, first compound 0.0001 µM): 80.7% | viability, T/C (second compound 0.1 µM, first compound 0.000316 µM): 72.3% | viability, T/C (second compound 0.1 µM, first compound 0.001 µM): 56.4% | viability, T/C (second compound 0.1 µM, first compound 0.00316 µM): 41.8% | viability, T/C (second compound 0.1 µM, first compound 0.01 µM): 35% | viability, T/C [1]: 25.8% | viability, T/C (second compound 0.316 µM, first compound 0.0001 µM): 63.1% | viability, T/C (second compound 0.316 µM, first compound 0.000316 µM): 53.3% | viability, T/C (second compound 0.316 µM, first compound 0.001 µM): 41.7% | viability, T/C (second compound 0.316 µM, first compound 0.00316 µM): 34.9% | viability, T/C (second compound 0.316 µM, first compound 0.01 µM): 27.1% | viability, T/C [2]: 20.4% | viability, T/C (second compound 1 µM, first compound 0.0001 µM): 47.3% | viability, T/C (second compound 1 µM, first compound 0.000316 µM): 40% | viability, T/C (second compound 1 µM, first compound 0.001 µM): 33.6% | viability, T/C (second compound 1 µM, first compound 0.00316 µM): 25.6% | viability, T/C (second compound 1 µM, first compound 0.01 µM): 20.4% | viability, T/C [3]: 17.1% | viability, T/C (second compound 3.16 µM, first compound 0.0001 µM): 29% | viability, T/C (second compound 3.16 µM, first compound 0.000316 µM): 27.8% | viability, T/C (second compound 3.16 µM, first compound 0.001 µM): 21.7% | viability, T/C (second compound 3.16 µM, first compound 0.00316 µM): 17.4% | viability, T/C (second compound 3.16 µM, first compound 0.01 µM): 18.8% | viability, T/C [4]: 17.8% | viability, T/C (second compound 10 µM, first compound 0.0001 µM): 29% | viability, T/C (second compound 10 µM, first compound 0.000316 µM): 26.3% | viability, T/C (second compound 10 µM, first compound 0.001 µM): 19.7% | viability, T/C (second compound 10 µM, first compound 0.00316 µM): 17.7% | viability, T/C (second compound 10 µM, first compound 0.01 µM): 14.8% | viability, T/C [5]: 15.9%

CC1(C)CCC(CN2CCN(c3ccc(C(=O)NS(=O)(=O)c4ccc(NCC5CCOCC5)c([N+](=O)[O-])c4)c(Oc4cnc5[nH]ccc5c4)c3)CC2)=C(c2ccc(Cl)cc2)C1 + CNCc1ccccc1-c1csc(C(C)Nc2nc(C)nc3cc(OC)c(OC)cc23)c1
IC50 (second compound 0.1 µM): 1820 nM | IC50 (second compound 0.316 µM): 1680 nM | IC50 (second compound 1 µM): 1910 nM | IC50 (second compound 3.16 µM): 1430 nM | IC50 (second compound 10 µM): < 31.6 nM | viability, T/C [1]: 94.5% | viability, T/C (second compound 0.1 µM, first compound 0.1 µM): 94.2% | viability, T/C (second compound 0.1 µM, first compound 0.316 µM): 86.2% | viability, T/C (second compound 0.1 µM, first compound 1 µM): 87.8% | viability, T/C (second compound 0.1 µM, first compound 3.16 µM): 14.9% | viability, T/C (second compound 0.1 µM, first compound 10 µM): 5.18% | viability, T/C [2]: 83% | viability, T/C (second compound 0.316 µM, first compound 0.1 µM): 91.8% | viability, T/C (second compound 0.316 µM, first compound 0.316 µM): 92.5% | viability, T/C (second compound 0.316 µM, first compound 1 µM): 81.2% | viability, T/C (second compound 0.316 µM, first compound 3.16 µM): 12% | viability, T/C (second compound 0.316 µM, first compound 10 µM): 2.51% | viability, T/C [3]: 106% | viability, T/C (second compound 1 µM, first compound 0.1 µM): 104% | viability, T/C (second compound 1 µM, first compound 0.316 µM): 99.2% | viability, T/C (second compound 1 µM, first compound 1 µM): 94.8% | viability, T/C (second compound 1 µM, first compound 3.16 µM): 15.3% | viability, T/C (second compound 1 µM, first compound 10 µM): 1.65% | viability, T/C [4]: 104% | viability, T/C (second compound 3.16 µM, first compound 0.1 µM): 102% | viability, T/C (second compound 3.16 µM, first compound 0.316 µM): 98.7% | viability, T/C (second compound 3.16 µM, first compound 1 µM): 71.3% | viability, T/C (second compound 3.16 µM, first compound 3.16 µM): 1.61% | viability, T/C (second compound 3.16 µM, first compound 10 µM): 1.05% | viability, T/C [5]: 0.23% | viability, T/C (second compound 10 µM, first compound 0.1 µM): 0.28% | viability, T/C (second compound 10 µM, first compound 0.316 µM): 0.27% | viability, T/C (second compound 10 µM, first compound 1 µM): 0.19% | viability, T/C (second compound 10 µM, first compound 3.16 µM): 0.14% | viability, T/C (second compound 10 µM, first compound 10 µM): 0.18%
